These compounds were tested on Per2-dLuc U2OS reporter cells (assay: Per2 assay for evaluating the potency of test compounds (high-throughput circadian assay)). Settings: Homo sapiens, U2OS, stable U2OS reporter cells harboring Per2-dLuc; luminescence monitored over 4-5 days at 35° C.
Format: cell-based
Method in brief: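 After 24 h culture, U2OS cells carrying Per2-dLuc were serum-shock synchronized into explant medium with 1.0 mM luciferin (10 mM HEPES pH 7.0) and compound in 0.5% DMSO. Luminescence was recorded over 4–5 days at 35 °C. Circadian period, amplitude and phase were derived, and EC50 calculated.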

Point of comparison: `COc1cccc(N(CC(O)Cn2c3ccccc3c3ccccc32)S(C)(=O)=O)c1` (stereo not drawn) [Compound 73, N-(3-(9H-Carbazol-9-yl)-2-hydroxypropyl)-N-(3-methoxyphenyl)methanesulfonamide], EC50 2.99 µM. Against it:
- CS(=O)(=O)N(CC(O)Cn1c2ccc(F)cc2c2cc(F)ccc21)c1ccc(OC2CC2)cc1 (stereo not drawn) [Compound 212, N-(4-Cyclopropoxyphenyl)-N-(3-(3,6-difluoro-9H-carbazol-9-yl)-2-hydroxypropyl)methanesulfonamide] — 1.7-fold lower, 1.8 µM
- CS(=O)(=O)NCC(O)Cn1c2ccccc2c2ccccc21 (stereo not drawn) [Compound 113, N-(3-(9H-Carbazol-9-yl)-2-hydroxypropyl)methanesulfonamide] — 24-fold lower, 0.123 µM
- CS(=O)(=O)N(CC(O)Cn1c2ccccc2c2ccccc21)C1(C#N)CC1 (stereo not drawn) [Compound 125, N-(3-(9H-Carbazol-9-yl)-2-hydroxypropyl)-N-(1-cyanocyclopropyl)methanesulfonamide] — within 1.5-fold, 2.61 µM
- O=S1(=O)C(F)CCCN1CC(O)Cn1c2ccccc2c2ccccc21 (stereo not drawn) [Compound 121, 2-(3-(9H-Carbazol-9-yl)-2-hydroxypropyl)-6-fluoro-1,2-thiazinane-1,1-dioxide] — 59-fold lower, 0.051 µM
- CS(=O)(=O)N(CC(O)Cn1c2ccccc2c2ccccc21)CC1CC2CCC1O2 (single isomer, unassigned) [Compound 69, N-(7-Oxabicyclo[2.2.1]heptan-2-ylmethyl)-N-(3-(9H-carbazol-9-yl)-2-hydroxypropyl)methanesulfonamide] — 3.9-fold lower, 0.759 µM
- CS(=O)(=O)N(CC(O)Cn1c2ccccc2c2ccccc21)CC1CCCC1 (stereo not drawn) [Compound 50, N-(3-(9H-Carbazol-9-yl)-2-hydroxypropyl)-N-(cyclopentylmethyl)methanesulfonamide] — 20-fold lower, 0.148 µM
- CC(O)(CN(C1CCC1)S(C)(=O)=O)Cn1c2ccc(F)cc2c2cc(F)ccc21 (stereo not drawn) [Compound 149, N-Cyclobutyl-N-(3-(3,6-difluoro-9H-carbazol-9-yl)-2-hydroxy-2-methylpropyl)methanesulfonamide] — 2.5-fold higher, 7.62 µM
- CS(=O)(=O)N(CC(O)Cn1c2ccccc2c2ccccc21)c1ccc(F)cc1 (stereo not drawn) [Compound 24, N-(3-(9H-Carbazol-9-yl)-2-hydroxypropyl)-N-(4-fluorophenyl)methanesulfonamide] — 14-fold lower, 0.21 µM
- CN(CC(O)Cn1c2cc(F)ccc2c2ccc(F)cc21)S(C)(=O)=O (stereo not drawn) [Compound 94, N-(3-(2,7-Difluoro-9H-carbazol-9-yl)-2-hydroxypropyl)-N-methylmethanesulfonamide] — within 1.5-fold, 3.45 µM
- CS(=O)(=O)NCC(O)Cn1c2ccc(F)cc2c2cc(F)ccc21 (stereo not drawn) [Compound 154, N-(3-(3,6-Difluoro-9H-carbazol-9-yl)-2-hydroxypropyl)methanesulfonamide] — 4.4-fold lower, 0.68 µM
- O=S1(=O)NCCCN1CC(O)Cn1c2ccccc2c2ccccc21 (stereo not drawn) [Compound 123, 2-(3-(9H-Carbazol-9-yl)-2-hydroxypropyl)-1,2,6-thiadiazinane-1,1-dioxide] — 91-fold lower, 0.033 µM
- CS(=O)(=O)N(CC(O)Cn1c2ccccc2c2ccccc21)C1(C(F)(F)F)CC1 (stereo not drawn) [Compound 145, N-(3-(9H-Carbazol-9-yl)-2-hydroxypropyl)-N-(1-(trifluoromethyl)cyclopropyl)methanesulfonamide] — 2.2-fold lower, 1.35 µM
- COC1CN(CC(C)(O)Cn2c3ccc(F)cc3c3cc(F)ccc32)S(=O)(=O)C1 (stereo not drawn) [Compound 182, 2-(3-(3,6-Difluoro-9H-carbazol-9-yl)-2-hydroxy-2-methylpropyl)-4-methoxyisothiazolidine-1,1-dioxide] — 12-fold lower, 0.241 µM
- CS(=O)(=O)N(CC(O)Cn1c2ccccc2c2ccccc21)CC1CCCCC1 (stereo not drawn) [Compound 52, N-(3-(9H-Carbazol-9-yl)-2-hydroxypropyl)-N-(cyclohexylmethyl)methanesulfonamide] — 9.8-fold lower, 0.306 µM
- CN(CC(O)Cn1c2cc(F)ccc2c2c(F)cccc21)S(C)(=O)=O (stereo not drawn) [Compound 98, N-(3-(2,5-Difluoro-9H-carbazol-9-yl)-2-hydroxypropyl)-N-methylmethanesulfonamide] — 2.7-fold higher, 8.1 µM
- CS(=O)(=O)N(CC(O)Cn1c2ccc(F)cc2c2cc(F)ccc21)c1ccc(-c2c[nH]cn2)cc1 (stereo not drawn) [Compound 204, N-(4-(1H-Imidazol-4-yl)phenyl)-N-(3-(3,6-difluoro-9H-carbazol-9-yl)-2-hydroxypropyl)methanesulfonamide] — within 1.5-fold, 2.55 µM
- O=S1(=O)CCCN1CC(O)Cn1c2cc(F)ccc2c2ccc(F)cc21 (stereo not drawn) [Compound 92, N-(3-(2,7-Difluoro-9H-carbazol-9-yl)-2-hydroxypropyl)-isothiazolidine-1,1-dioxide] — 75-fold lower, 0.04 µM
- CC1(N(CC(O)Cn2c3ccc(F)cc3c3cc(F)ccc32)S(C)(=O)=O)CC1 (stereo not drawn) [Compound 188, N-(3-(3,6-Difluoro-9H-carbazol-9-yl)-2-hydroxypropyl)-N-(1-methylcyclopropyl)methanesulfonamide] — 20-fold lower, 0.147 µM
- O=S(=O)(Cc1ccccc1)N(Cc1ccco1)CC(O)Cn1c2ccccc2c2ccccc21 (stereo not drawn) [Compound 14, N-(3-(9H-Carbazol-9-yl)-2-hydroxypropyl)-N-(furan-2-ylmethyl)-1-phenylmethanesulfonamide] — 4.6-fold lower, 0.652 µM
- O=S1(=O)CCCCN1CC(O)Cn1c2ccc(F)cc2c2cc(F)ccc21 (stereo not drawn) [Compound 86, N-(3-(3,6-Difluoro-9H-carbazol-9-yl)-2-hydroxypropyl)-1,2-thiazinane 1,1-dioxide] — 65-fold lower, 0.046 µM
- CS(=O)(=O)N(CC(O)Cn1c2ccccc2c2ccccc21)c1ccc2[nH]ccc2c1 (stereo not drawn) [Compound 76, N-(3-(9H-Carbazol-9-yl)-2-hydroxypropyl)-N-(1H-indol-5-yl)methanesulfonamide] — within 1.5-fold, 2.18 µM
- CS(=O)(=O)N(CC(O)Cn1c2ccc(F)cc2c2cc(F)ccc21)c1ccc(-n2cccn2)cc1 (stereo not drawn) [Compound 213, N-(4-(1H-Pyrazol-1-yl)phenyl)-N-(3-(3,6-difluoro-9H-carbazol-9-yl)-2-hydroxypropyl)methanesulfonamide] — within 1.5-fold, 2.95 µM
- CN1CCN(CC(O)Cn2c3ccc(F)cc3c3cc(F)ccc32)S1(=O)=O (stereo not drawn) [Compound 173] — 35-fold lower, 0.086 µM
- COCCN(CC(O)Cn1c2ccc(F)cc2c2ccc(F)cc21)S(C)(=O)=O (stereo not drawn) [Compound 104, N-(3-(2,6-Difluoro-9H-carbazol-9-yl)-2-hydroxypropyl)-N-(2-methoxyethyl)methanesulfonamide] — within 1.5-fold, 3.5 µM
- COc1ccc(N(CC(O)Cn2c3ccccc3c3ccccc32)S(C)(=O)=O)cc1 (stereo not drawn) [Compound 21, N-(3-(9H-Carbazol-9-yl)-2-hydroxypropyl)-N-(4-methoxyphenyl)methanesulfonamide] — 6.8-fold lower, 0.44 µM
- CC1CC(N(CC(O)Cn2c3ccccc3c3ccccc32)S(C)(=O)=O)C1 (stereo not drawn) [Compound 131, N-(3-(9H-Carbazol-9-yl)-2-hydroxypropyl)-N-(3-methylcyclobutyl)methanesulfonamide] — 38-fold lower, 0.079 µM
- O=S(=O)(CC(F)(F)F)N(Cc1ccco1)CC(O)Cn1c2ccccc2c2ccccc21 (stereo not drawn) [Compound 7, N-(3-(9H-Carbazol-9-yl)-2-hydroxypropyl)-2,2,2-trifluoro-N-(furan-2-ylmethyl)ethanesulfonamide] — within 1.5-fold, 2.1 µM
- CS(=O)(=O)N(CC(O)Cn1c2ccc(F)cc2c2cc(F)ccc21)c1ccc(-c2cc[nH]n2)cc1 (stereo not drawn) [Compound 214, N-(4-(1H-Pyrazol-3-yl)phenyl)-N-(3-(3,6-difluoro-9H-carbazol-9-yl)-2-hydroxypropyl)methanesulfonamide] — 2.2-fold higher, 6.56 µM
- CC(O)(CN(c1ccccc1)S(C)(=O)=O)Cn1c2ccc(F)cc2c2cc(F)ccc21 (stereo not drawn) [Compound 215, N-(3-(3,6-Difluoro-9H-carbazol-9-yl)-2-hydroxy-2-methylpropyl)-N-phenylmethanesulfonamide] — 2.6-fold higher, 7.88 µM
- CC(O)(Cn1c2ccc(F)cc2c2cc(F)ccc21)C(C)(C)N1CCCS1(=O)=O (stereo not drawn) [Compound 245, 2-(4-(3,6-Difluoro-9H-carbazol-9-yl)-3-hydroxy-2,3-dimethylbutan-2-yl)-isothiazolidine-1,1-dioxide] — 2.6-fold lower, 1.15 µM
- COCCS(=O)(=O)N(Cc1ccco1)CC(O)Cn1c2ccccc2c2ccccc21 (stereo not drawn) [Compound 11, N-(3-(9H-Carbazol-9-yl)-2-hydroxypropyl)-N-(furan-2-ylmethyl)-2-methoxyethanesulfonamide] — 1.7-fold lower, 1.79 µM
- CCN(CC(O)Cn1c2ccc(F)cc2c2cc(F)ccc21)S(C)(=O)=O (stereo not drawn) [Compound 156, N-(3-(3,6-ifluoro-9H-carbazol-9-yl)-2-hydroxypropyl)-N-ethylmethanesulfonamide] — 6.3-fold lower, 0.471 µM
- CC(=O)Nc1ccc(N(CC(O)Cn2c3ccccc3c3ccccc32)S(C)(=O)=O)cc1 (stereo not drawn) [Compound 29, N-(4-(N-(3-(9H-Carbazol-9-yl)-2-hydroxypropyl)methylsulfonamido)phenyl)acetamide] — 4.2-fold lower, 0.71 µM
- CS(=O)(=O)N(Cc1ccccc1F)CC(O)Cn1c2ccccc2c2ccccc21 (stereo not drawn) [Compound 68, N-(3-(9H-Carbazol-9-yl)-2-hydroxypropyl)-N-(2-fluorobenzyl)methanesulfonamide] — 1.5-fold lower, 1.99 µM
- CC1(N(CC(O)Cn2c3ccccc3c3ccccc32)S(C)(=O)=O)COC1 (stereo not drawn) [Compound 144, N-(3-(9H-Carbazol-9-yl)-2-hydroxypropyl)-N-(3-methyloxetan-3-yl)methanesulfonamide] — within 1.5-fold, 2.16 µM
- CS(=O)(=O)N(CC(O)Cn1c2ccccc2c2ccccc21)C1CCCc2ccccc21 (stereo not drawn) [Compound 47, N-(3-(9H-Carbazol-9-yl)-2-hydroxypropyl)-N-(1,2,3,4-tetrahydronaphthalen-1-yl)methanesulfonamide] — within 1.5-fold, 3.35 µM

Same assay, conditions: stable U2OS reporter cells harboring Per2-dLuc; luminescence monitored over 4-5 days at 35° C.

Point of comparison: `CC1CCCC1N(CC(O)Cn1c2ccc(F)cc2c2cc(F)ccc21)S(C)(=O)=O` (single isomer, unassigned) [Compound 193B, N-(3-(3,6-Difluoro-9H-carbazol-9-yl)-2-hydroxypropyl)-N-(2-methylcyclopentyl)methanesulfonamide], EC50 0.654 µM. Against it:
- CC1CCCC1N(CC(O)Cn1c2ccc(F)cc2c2cc(F)ccc21)S(C)(=O)=O (single isomer, unassigned) [Compound 193C, N-(3-(3,6-Difluoro-9H-carbazol-9-yl)-2-hydroxypropyl)-N-(2-methylcyclopentyl)methanesulfonamide] — 6.8-fold higher, 4.47 µM

Source: patent publication US10383880B2 (Reset Therapeutics, Inc., priority 2012, dated 2019)
